Paper PMC10906223 (JCI Insight, 2024)
“And” between values parts separate entries of the source, which are not always exact repeats. Identical values can stand only once.

Tests used:
[1] = test system: human donor dispersed islet cells; experiment: Glucagon secretion from healthy human donor dispersed islet cells; assay type: cell-based; design: Glucagon secretion: unit not given here
Experimental: (§1) Pancreata of nondiabetic C57BL/6J mice were digested using collagenase P (Roche Diagnostics, catalog 11213873001), and islets were manually picked up using a stereomicroscope (ZEISS Stemi 305). […] Isolated mouse islets or provided human islets were dispersed as described ([28]). Briefly, 100–120 islets were washed 2 times using modified HBSS, then dispersed in 600 μL Accutase (Innovative Cell Technologies, catalog AT-104) by gently pipetting up and down for 7 minutes at 37°C. […] Following refreshing of KRBH, cells were dispensed in 8 microfuge tubes (2,000 cells/tube) and treated with WCDD301, preclustered Ephrin-A5 Fc, or preclustered Fc in the presence or absence of the competitive inhibitor of EphA4 receptor, rhyncophylline ([60]) (MilliporeSigma, catalog SML2345). In the presence or absence of these effectors, secretion assay was performed sequentially as shown in Supplemental Table 5. […] Preclustering of Ephrin-A5 Fc was done by mixing Ephrin-A5 Fc or Fc alone (BioLegend, catalog 790102) with anti-Fc antibody (Invitrogen, catalog A16086) (1:10 molar ratio) 20 minutes before treatment ([62]). […] Shedding of cleaved EphA4 was measured from the cell culture medium. Experiments were performed by dispersion of 200 islets, and EphA4 levels in media were measured by EphA4 ELISA (ABclonal, catalog RK06572).
(§2) The Integrated Islet Distribution Program provided us human donor islets with their characteristics (Supplemental Table 6). Islets were centrifuged at 500g for 3 minutes, resuspended in CMRL 1066 medium (Gibco, catalog 1150-037) containing 11 mM glucose, and rested in an incubator overnight.
(§3) For the hormone secretion assay, islets or dispersed islet cells were adapted in KRBH buffer containing 11 mM glucose for 1 hour. Then, after 2 washes in HBSS containing 11 mM glucose, islets or cells were treated in the following sequential order in the presence or absence of WCDD301: incubation in KRBH (1 mM glucose, 30 minutes) followed by medium collection, incubation in KRBH (11 mM glucose, 30 minutes) followed by medium collection.

diabetic NOD mice = experiment: Daily food intake in NOD mice; assay type: in vivo, mouse; design: Daily food intake (Figure 7E): unit not given here; conditions: for Daily food intake (Figure 7E): Diabetic, WCDD301 treated
Experimental: We preweighed WCDD301 into microfuge tubes and reconstituted it using deionized water. Using a 10 μL pipette tip, we placed the calculated dose of WCDD301 (at the volume range of 1–1.5 μL) within the center of pearls. WCDD301 was placed into pearls 30–45 minutes before administration. For oral administration of pearls, we designed an applicator using a disposable plastic transfer pipette and syringe plunger lubricated with olive oil. Food intake and body weight in each experimental group (diabetic WCDD301-treated, diabetic placebo-treated, and nondiabetic placebo-treated NOD mice) were monitored daily for 4 weeks. Urine glucose was measured from individually caged NOD mice (nondiabetic placebo treated n = 2, diabetic placebo treated n = 2, and diabetic WCDD301 treated n = 4, 21–23 weeks old) with metabolic cages. Urine glucose was monitored every 24 hours for 10 days by semiquantitative measurements (P-STICKS, Millpledge Veterinary).

[2] = test system: dispersed mouse islet cells; experiment: EphA4 shedding into culture medium (EphA4 ELISA); assay type: cell-based; conditions: Supplemental Figure 4D
Experimental: as §1

[3] = test system: isolated islets of donors with T1D; experiment: Glucagon secretion from isolated islets of donors with T1D; assay type: cell-based, human; conditions: for Secretion of glucagon: isolated islets, T1D donors, one value per donor, Figure 2G
Experimental: as §2, §3

[4] = test system: α cells of NOD mice islets; experiment: α cell numbers and sizes in islets of NOD mice; assay type: in vivo, mouse; conditions: 11-week administration; Supplemental Figure 7
Experimental: (§4) Pancreata of NOD mice (females, n = 3 per group) from nondiabetic, diabetic placebo-treated, and diabetic WCDD301-treated cohorts were excised; fixed in 10% buffered formalin for 5 days; and treated with ethanol 70% for 2 days before paraffin embedding. The paraffin-embedded tissue blocks were longitudinally sectioned in 5 μm slices and fixed on microscope slides. Following deparaffinization (through incubation in graded xylene, graded ethanol, and PBS), permeabilization (using 0.1% Triton X-100 in PBS), and background blocking (using 5% BSA solution containing 0.1% Tween 20), samples were incubated with primary antibodies (mouse anti-glucagon, Abcam, catalog ab10988; above-mentioned rabbit anti-EphA4), secondary antibodies (goat anti-mouse IgG Alexa Fluor 488; Invitrogen, catalog A-11001; goat anti-rabbit IgG Alexa Fluor 633, Invitrogen, catalog A-21070), SPY555-Actin (Cytoskeleton, catalog SC202), and DAPI. Image acquisition and analysis were performed as for dispersed islet cells. […] ROIs were manually drawn around each islet, background signal was removed by thresholding, and intensity of glucagon signal was determined and normalized by the islet surface area. To determine sizes of α cells per islet, ROIs were manually drawn around α cells in each islet. […]

[5] = test system: α cells of NOD mice islets; experiment: EphA4 signal in α cells of pancreatic slices of NOD mice; assay type: in vivo, mouse; conditions: WCDD301-treated NOD mice; diabetic 12.64 ± 1.12, nondiabetic 18.62 ± 1.09
Experimental: as §4

With `CC(=O)OCC(N)(COC(C)=O)COC(C)=O` [WCDD301, 2-(acetoxymethyl)-2-aminopropane-1,3-diyl diacetate] the “Effect on glucagon secretion” value ([1]; 1, 3 or 6 hours exposure, 1 mM and 11 mM glucose) was “dose-dependent and time-dependent suppression of glucagon secretion”, the Glucagon secretion ([1]; 1 hour exposure, WCDD301 0.75 µM, 1 mM (first group), Figure 2A) was 48.0 and 44.0 and 43.0 and the Glucagon secretion ([1]; 1 hour exposure, WCDD301 0.75 µM, head printed 1 mM (second group c4-c7), Figure 2A) was 55.8 and 56.2 and 53.0. The Glucagon secretion ([1]; 1 hour exposure, WCDD301 1.5 µM, 1 mM (first group), Figure 2A) was 41.5 and 42.9 and 40.0, the Glucagon secretion ([1]; 1 hour exposure, WCDD301 1.5 µM, head printed 1 mM (second group c4-c7), Figure 2A) was 50.8 and 55.7 and 48.0 and the Glucagon secretion ([1]; 1 hour exposure, WCDD301 3 µM, 1 mM (first group), Figure 2A) was 40.5 and 41.8 and 38.0. The Glucagon secretion ([1]; 1 hour exposure, WCDD301 3 µM, head printed 1 mM (second group c4-c7), Figure 2A) was 49.7 and 48.4 and 44.0, the Glucagon secretion ([1]; 3 hours exposure, WCDD301 0.75 µM, 1 mM (first group), Figure 2B) was 41.6 and 44.5 and 43.0 and the Glucagon secretion ([1]; 3 hours exposure, WCDD301 0.75 µM, head printed 1 mM (second group c4-c7), Figure 2B) was 66.0 and 60.4 and 68.0. The Glucagon secretion ([1]; 3 hours exposure, WCDD301 1.5 µM, 1 mM (first group), Figure 2B) was 44.9 and 42.7 and 41.0, the Glucagon secretion ([1]; 3 hours exposure, WCDD301 1.5 µM, head printed 1 mM (second group c4-c7), Figure 2B) was 58.5 and 55.8 and 60.0 and the Glucagon secretion ([1]; 3 hours exposure, WCDD301 3 µM, 1 mM (first group), Figure 2B) was 42.4 and 42.3 and 41.0. The Glucagon secretion ([1]; 3 hours exposure, WCDD301 3 µM, head printed 1 mM (second group c4-c7), Figure 2B) was 66.8 and 54.9 and 52.0, the Glucagon secretion ([1]; 6 hours exposure, WCDD301 0.75 µM, 1 mM (first group), Figure 2C) was 42.9 and 40.6 and 44.0 and the Glucagon secretion ([1]; 6 hours exposure, WCDD301 0.75 µM, head printed 1 mM (second group c4-c7), Figure 2C) was 67.1 and 76.1 and 81.0. The Glucagon secretion ([1]; 6 hours exposure, WCDD301 1.5 µM, 1 mM (first group), Figure 2C) was 42.5 and 46.0 and 43.0, the Glucagon secretion ([1]; 6 hours exposure, WCDD301 1.5 µM, head printed 1 mM (second group c4-c7), Figure 2C) was 67.6 and 68.1 and 62.0 and the Glucagon secretion ([1]; 6 hours exposure, WCDD301 3 µM, 1 mM (first group), Figure 2C) was 39.8 and 39.3 and 37.0. For the same compound, the Glucagon secretion ([1]; 6 hours exposure, WCDD301 3 µM, head printed 1 mM (second group c4-c7), Figure 2C) was 56.5 and 55.1 and 50.0, the “Daily food intake (Figure 7E)” value (diabetic NOD mice; Day 1) was 188.5 and 161.1 and 187.4 and 162.1 and the “Daily food intake (Figure 7E)” value (diabetic NOD mice; Day 2) was 210.5 and 168.9 and 209.3 and 170. The “Daily food intake (Figure 7E)” value (diabetic NOD mice; Day 3) was 184.2 and 168.9 and 183.1 and 170, the “Daily food intake (Figure 7E)” value (diabetic NOD mice; Day 4) was 192.5 and 167.7 and the “Daily food intake (Figure 7E)” value (diabetic NOD mice; Day 7) was 203.2 and 168.3 and 202 and 169.4. For the same compound, the “Daily food intake (Figure 7E)” value (diabetic NOD mice; Day 8) was 200 and 184.4 and 198.8 and 185.5, the “Daily food intake (Figure 7E)” value (diabetic NOD mice; Day 9) was 226.3 and 184.4 and 225 and 185.5 and the “Daily food intake (Figure 7E)” value (diabetic NOD mice; Day 10) was 211.6 and 161.9 and 188.3 and 170.8. For the same compound, the “Daily food intake (Figure 7E)” value (diabetic NOD mice; Day 11) was 185.1 and 169.8 and 210.3 and 170.8, the “Daily food intake (Figure 7E)” value (diabetic NOD mice; Day 12) was 193.5 and 169.8 and 184 and 169.5 and the “Daily food intake (Figure 7E)” value (diabetic NOD mice; Day 13) was 182.7 and 168.5 and 192.3 and 160.2. For the same compound, the “Daily food intake (Figure 7E)” value (diabetic NOD mice; Day 14) was 191.2 and 159.2 and 181.6, the “Daily food intake (Figure 7E)” value (diabetic NOD mice; Day 15) was 204.2 and 190.1 and 190 and 170.2 and the “Daily food intake (Figure 7E)” value (diabetic NOD mice; Day 16) was 201 and 169.2 and 203 and 186.4. The “Daily food intake (Figure 7E)” value (diabetic NOD mice; Day 17) was 227.4 and 185.3 and 199.8 and 186.4, the “Daily food intake (Figure 7E)” value (diabetic NOD mice; Day 18) was 190.4 and 185.3 and 226.1 and 163.7 and the “Daily food intake (Figure 7E)” value (diabetic NOD mice; Day 19) was 212.6 and 162.7 and 189.2 and 171.7. The “Daily food intake (Figure 7E)” value (diabetic NOD mice; Day 20) was 186.1 and 170.6 and 211.4 and 171.7, the “Daily food intake (Figure 7E)” value (diabetic NOD mice; Day 21) was 194.4 and 170.6 and 184.9 and 170.4 and the “Daily food intake (Figure 7E)” value (diabetic NOD mice; Day 22) was 183.6 and 169.3 and 193.3 and 161. The “Daily food intake (Figure 7E)” value (diabetic NOD mice; Day 23) was 192.1 and 160 and 182.5 and 192.2, the “Daily food intake (Figure 7E)” value (diabetic NOD mice; Day 24) was 205.2 and 191 and 171 and the “Daily food intake (Figure 7E)” value (diabetic NOD mice; Day 25) was 202 and 170 and 204 and 187.3. The “Daily food intake (Figure 7E)” value (diabetic NOD mice; Day 26) was 228.6 and 186.2 and 200.8 and 187.3, the “Daily food intake (Figure 7E)” value (diabetic NOD mice; Day 27) was 177.9 and 175.1 and 174 and 179 and the “Daily food intake (Figure 7E)” value (diabetic NOD mice; Day 28) was 225.9 and 175.3 and 174.1 and 226.9. For the same compound, the “Food intake, daily monitoring” value (diabetic NOD mice; diabetic WCDD301-treated mice) was “phenotypes similar to nondiabetic placebo-treated mice”, the “Shedding of EphA4 into the cell culture medium” value [2] was “reduced shedding of EphA4 into the cell culture medium” and the “Effect on glucagon secretion” value ([3]; islets from donors with long-standing T1D) was “reduced glucagon secretion”. For the same compound, the Secretion of glucagon ([3]; 1 mM glucose) was 39.575 and 41.23, the Secretion of glucagon ([3]; 11 mM glucose) was 36.8 and 30.22 and the “Numbers or sizes of α cells (histology)” value [4] was “did not indicate any alterations in numbers or sizes of α cells”. For the same compound, the “EphA4 signal within α cells” value [5] was 21.84 ± 1.14 AU.
